`Cc1c(-c2ccc(O)cc2)n(Cc2ccc(OCCN3CCCCC3)cc2)c2ccc(O)cc12` yielded a melting point of 214 to 217 °C.

The compound `CCOC(=O)c1ccc(C(NCC(=O)Nc2c(C(C)C)cccc2C(C)C)c2ccccc2)cc1` (configuration not stated) registered a melting point of 139 to 140 °C.

`CC(=O)c1cccc(Oc2ncccc2C(=O)NCC2CCC(C(C)O)CC2)c1` (configuration not stated): the melting point fell in the range of 101 to 103 °C.

Consider `C=CCOc1ccc(-c2cc(N)n[nH]2)cc1`, for which the melting point was in the range of 158 to 159 °C.

For `CC(C)C(=CC(N)C(=O)O)CP(=O)(O)O` (configuration not stated), the melting point was found to be 201 °C.

For `O=C1c2cc(OCc3ccc4ccccc4n3)ccc2CC1Cc1ccccc1` (configuration not stated), the melting point fell in the range of 104 to 106 °C.

`CCc1cc(C=O)c(O)c(S(C)(=O)=O)c1` registered a melting point of 114 to 116 °C.

As to `CC1(C2CCCC2)Cc2cc(NCC(=O)O)c(Cl)c(Cl)c2C1=O` (configuration not stated), the melting point fell in the range of 199 to 200 °C.

The compound `COC(=O)COc1ccc(S(=O)(=O)C(Br)(Br)Br)cc1` had a melting point of 152 to 153 °C.

Turning to `O=C1C(C(c2cc(F)ccc2F)S(=O)(=O)c2ccc(Cl)cc2)CCCN1CCCO` (configuration not stated), the melting point lay within 120 to 121 °C.

For the compound `O=C(N[C@H]1CC[C@H](O)CC1)OCc1ccccc1`, the melting point lay in the range of 148 to 151 °C.

Take `CC(C)N1CCc2[nH]c3ccc4scc(-c5ccccc5)c4c3c2C1`: the melting point was determined as 204 °C.

In the case of `COc1ccc(-c2nc(N3CCOCC3)c3c(C)c(C#N)sc3n2)cc1OC`, the melting point was in the range of 194 to 196 °C.

In the case of `Clc1ccccc1-c1cnccn1`, the melting point is 38 to 39 °C.

`N#CC1CCCc2cc3c(nc21)CCCC3` (configuration not stated): the melting point lay in the range of 88 to 90 °C.

As for `O=C1N(Cc2ccc(C(F)(F)F)o2)c2ccccc2C12COc1cc3c(nc12)OCO3` (configuration not stated), the melting point was in the range of 175 to 177 °C.

As for `COc1ccnc(CCc2nc3cc(-c4ccc(S(=O)(=O)N5CCN(c6ccc(C#N)cc6)CC5)cc4)cnc3[nH]2)c1`, the melting point fell in the range of 217 to 219 °C.

As for `CS(=O)(=O)Nc1cc(C(=O)C=O)ccc1OCc1ccccc1`, the melting point was 125 to 128 °C.

`CCCCCCCCCCCCCCCCCC(=O)Nc1cccc([N+](=O)[O-])c1`: the melting point lay within 75 to 76 °C.

Turning to `COc1ccc(Cc2oc3cccc(O)c3c2C)cc1`, the melting point fell in the range of 130 to 133 °C.

As to `CC1CC2(C)C(O)CCC2C2C(C)CC3=CC(=O)CCC3C12` (configuration not stated), the melting point lay within 155 to 157 °C.

Compound `CSc1nn(C(=O)Oc2ccccc2)c(=O)n1N` came in with a melting point of 161 °C.

Take `O=C1Cc2ccc(-c3ccccc3)cc2O1`: the melting point was 109 to 110 °C.

On to `C=CCOc1cc(OCc2ccccc2)ccc1O`, for which the melting point was 62 °C.

`CC1CN(c2cc3c(cc2F)c(=O)c(C(=O)O)cn3C2CC2)CCN1CCC#N` (configuration not stated) registered a melting point of 203 to 206 °C.

Compound `CN1C(=O)C2c3c([nH]c4ncccc34)-c3nccn3C2C1=O` (configuration not stated) displayed a melting point of 222 to 224 °C.

With `CC(CCC(F)(F)C(C)(C)O)C1CCC2C3CCC4=CC(=O)C=CC4(C)C3CCC12C` (configuration not stated), the melting point lay within 176 to 177 °C.

In turn, `CC(C)CC(NC(=O)OC(C)(C)C)C(=O)NCCC(=O)O` (configuration not stated) showed a melting point of 91 to 92 °C.

For the compound `O=C(c1ccc2ccccc2c1)P1(=O)Oc2ccccc2-c2ccccc21` (configuration not stated), the melting point fell in the range of 151 to 153 °C.

The compound `O=C1CCC(N2Cc3cc(CNC(=O)Nc4ccc(SC(F)(F)F)cc4)ccc3C2=O)C(=O)N1` (configuration not stated) gave a melting point of 218 to 220 °C.

The compound `O=C(NCCCN1CCN(c2ncccn2)CC1)NC12CC3CC(CC(C3)C1)C2` displayed a melting point of 172 to 173 °C.

Turning to `CN1CCN(c2cccc(-c3cnn4cc(C(=O)O)cnc34)c2)CC1`, the melting point fell in the range of 274 to 281 °C.

`COc1c2c(c(OC)c(OC)c1OC)CC(CCCCOc1ccc(C(=O)N(C)C)cc1)C2` displayed a melting point of 99 to 102 °C.

The compound `CN(C)CCOc1cc2c(Nc3ccc(Cl)cc3Cl)c(C#N)cnc2cn1` displayed a melting point of 75 to 79 °C.

With `CCOC(=O)c1cnn2c(-c3cccc(NC(=O)C4CCC4)c3)ccnc12`, the melting point lay within 123 to 125 °C.

In turn, `N#Cc1ccccc1C(=O)c1ccccc1S` returned a melting point of 94 °C.

As to `CCOC(=O)Cc1ccc2c(c1)sc1cc(Cl)ccc12`, the melting point lay within 68 to 70 °C.

In turn, `CC(=O)NC[C@H]1CN(c2ccc(/C=C3/C(=O)N(C)c4ccccc43)cc2)C(=O)O1` registered a melting point of 193 to 195 °C.

As for `CC(=NNc1ccc(C2=NNC(=O)CC2)cc1)c1cccnc1`, the melting point was 236 to 237 °C.

The compound `CS(=O)(=O)N(CC1CCCCC1)CC(O)(Cn1cncn1)c1ccc(Cl)cc1Cl` (configuration not stated) returned a melting point of 168 to 169 °C.

Consider `Nc1n[nH]c2cc(CN3CCN(S(=O)(=O)c4cc5ccc(Cl)cc5s4)CC3=O)ccc12`, for which the melting point lay within 274 to 276 °C.

Compound `CCN(CC)c1nc(NC(N)=NOC)nc(OC)n1` registered a melting point of 112 °C.

For `CCCCCCCCCCCCCCCCCCNC(=O)O[C@@H]1CCCO[C@H]1COCc1ccccc1` (relative stereo), the melting point lay within 84 to 86 °C.

In the case of `CCN1C(=O)C2CC(c3ccc([N+](=O)[O-])cc3)(C2)C1=O`, the melting point was 175 to 179 °C.

Consider `Cc1ccc(N(C(=O)CCl)c2c(Cl)cc(C)cc2Cl)cc1`, for which the melting point fell in the range of 140 to 141 °C.

Compound `CN(C)C=C1Cc2cc(Cl)ccc2C1=O` registered a melting point of 148 to 150 °C.

In turn, `Fc1ccc(-c2c[nH]c(C3CCN(CC4CCCCC4)CC3)n2)cc1` showed a melting point of 220 to 222 °C.

Regarding `Cc1cncn1-c1cccc([N+](=O)[O-])c1`, the melting point is 130 to 132 °C.

Regarding `Cc1cc(C(=O)O)ccc1N1CCN(C(=O)OC(C)(C)C)CC1`, the melting point fell in the range of 175 to 179 °C.

Consider `CC(C)(O)Cn1c(CO)nc2c(N)nc3cc(CCCNS(C)(=O)=O)ccc3c21`, for which the melting point was 202 to 205 °C.

The compound `O=[N+]([O-])c1cccc(-c2nnc(NCc3cccc4ccccc34)s2)c1` returned a melting point of 150 to 151 °C.

For the compound `O=c1ccn(-c2ccc(-c3ccc(=O)[nH]n3)cc2)cc1`, the melting point is 339 to 341 °C.

`CCOC(=O)c1cn(CC)c2nc(N3CCC(NCC(C)=O)C3)c(F)cc2c1=O` (configuration not stated): the melting point was 212 to 213 °C.

`COc1ccnc(CSc2nc3c(OC(F)F)c(OC)c(OC)cc3[nH]2)c1C` showed a melting point of 177 to 179 °C.

`Cc1cc(-n2cncn2)cc(C=O)c1N` yielded a melting point of 209 to 211 °C.

`COc1ccc(C(=O)Nc2ccccc2)cc1NC(=S)Nc1ccc([N+](=O)[O-])cc1` had a melting point of 183 to 184 °C.

In the case of `CCON=C(C(=O)OCC)c1csc(NC(c2ccccc2)(c2ccccc2)c2ccccc2)n1`, the melting point was 165 °C.

With `N[C@]1(C(=O)O)[C@H]2[C@@H](C[C@H]1OCc1ccccc1)[C@@H]2C(=O)O`, the melting point was above 250 °C.

For `O=[N+]([O-])c1cc([N+](=O)[O-])c2ccccc2c1Nc1ccc(OC(F)(F)F)c(Cl)c1`, the melting point is 140 °C.

Consider `Cc1c(Cl)nc(N2CCNCC2)nc1NC(C)C`, for which the melting point worked out at 199 °C.

Regarding `O=C1CCC(NC(=O)OC(=O)c2ccccc2)(C(=O)OCc2ccc([N+](=O)[O-])cc2)O1` (configuration not stated), the melting point fell in the range of 127 to 128 °C.

Regarding `C#CCN1C(=O)c2cccc3c2N(CC3)c2ccccc21`, the melting point lay within 104 to 105 °C.

With `COc1ccc(-n2c(C)ccc2C)c(F)c1`, the melting point fell in the range of 67 to 69 °C.

Take `Cc1ccc(-c2cc(Br)c3c(c2)CCC(=O)N3)c(C)n1`: the melting point was 194 to 195 °C.

For `CC(C)Nc1n[nH]c(=O)n1N`, the melting point is 150 to 152 °C.

With `O=P(O)(O)C(O)(Cc1ccc(Cl)cc1)P(=O)(O)O`, the melting point was found to be 219 °C.

For the compound `O=[N+]([O-])c1cc(CO)ccc1Oc1ccc(OCc2ccccc2)cc1`, the melting point was in the range of 72 to 73 °C.

Compound `CC(C)c1cccc(C(C)C)c1NS(=O)(=O)NC(=O)N(Cc1ccccc1)Cc1ccccc1` came in with a melting point of 140 to 142 °C.

`O=C(c1ccccc1)c1cc([N+](=O)[O-])ccc1-n1nc(CN2C(=O)c3ccccc3C2=O)cc1CN1C(=O)c2ccccc2C1=O` gave a melting point of 220 to 224 °C.

Regarding `CN1CCC(Oc2cc3ccccc3cc2C(N)=O)C1` (configuration not stated), the melting point was 128 to 130 °C.

In turn, `CC(=O)OCC1OC(OCC(C)=CCN2C(=O)c3ccccc3C2=O)C(OC(C)=O)C(OC(C)=O)C1OC(C)=O` (configuration not stated) yielded a melting point of 104 to 105 °C.

Compound `O=c1ccc(C(F)(F)F)cn1Cc1ccc(NCCCN2CCCCC2)cc1` came in with a melting point of 168 to 170 °C.

The compound `COc1cc(OC)nc(NC(=O)NS(=O)(=O)c2ccccc2CN2CN=CN2)n1` yielded a melting point of 219 to 220 °C.

`COc1cc2c(cc1[N+](=O)[O-])[nH]c(=O)c(=O)n2C` registered a melting point of 343 °C.

Consider `CC(C)c1ccc(N(Cc2ccc(N(C)C)cc2)C(=O)C2CCCc3c(O)cccc32)cc1` (configuration not stated), for which the melting point fell in the range of 200 to 202 °C.

In the case of `O=C(NC[C@H]1CN(c2ccc(N3CCCC3=O)cc2)C(=O)O1)c1ccc(Cl)s1`, the melting point is 229 °C.

Compound `CCCCC1OC(=O)c2cc(N)c(N)cc21` (configuration not stated) returned a melting point of 94 to 96 °C.

The compound `CCN1CCCC1CNC(=O)c1c(C)[nH]c2ccccc12` (configuration not stated) registered a melting point of 132 to 135 °C.

`CC(C)NC(=O)c1ccc(N2CCC(N3C(=O)OCc4ccccc43)CC2)c(C#N)c1` came in with a melting point of 200 °C.

Turning to `CN1CC(CC#N)CC2c3cccc4c3C(CN4)CC21` (configuration not stated), the melting point is 100 to 104 °C.

The compound `CC(C)CC(=O)Nc1c(C(=O)c2ccoc2)[nH]c2cc(Cl)ccc12` gave a melting point of 202 to 203 °C.

Take `CCN(CC)c1cc(F)cc2nc3n(c12)CCCN3c1ccc(Cl)cc1Cl`: the melting point was 142 to 145 °C.

`O=S(=O)(Nc1ccc(I)cc1)N1CCOCC1` gave a melting point of 91 °C.

Take `O=S(=O)(Nc1cnc(Oc2cc3ccccc3cn2)c(Cl)c1)c1ccc(Cl)cc1Cl`: the melting point fell in the range of 203 to 205 °C.

On to `COc1cn(-c2ccc(-n3cc(F)c(F)c3)cc2F)nc(-c2ccnn2-c2ccccc2)c1=O`, for which the melting point was in the range of 212 to 214 °C.

On to `CCOC(=O)c1cc2c(C)c(-c3ccc(Cl)cc3)c(=O)oc2nc1C(=O)OCC`, for which the melting point lay in the range of 179 to 181 °C.

`CC(=O)OCC1OC(n2c(=O)sc3c(Cl)nc(N)nc32)C(OC(C)=O)C1OC(C)=O` (configuration not stated) showed a melting point of 101 to 103 °C.

The values above are taken from a melting point compilation (Tetko et al.; mined from patent text by program, amines drawn as free bases though some values may be those of a salt).
